We go through one compound from ChEMBL document CHEMBL1151342, “Psorospermin, a new antileukemic xanthone from Psorospermum febrifugum” (1980).

Common to all, as to format: functional
One assay concerns P388. Description: In vivo antitumor activity against mouse P388 cells at 8 mg/kg.
For the next assay, the system named is KB. The assay can be described thus: Cytotoxicity against human KB cells. The note with it: read-out: ED50 (the source's name).
For a further assay, the system named is Echinoidea. Description: Inhibition of mitosis in sea urchin egg at 1 uM.

Converted amounts (≈) assume the structure as drawn. The source made the active and inactive calls. The calls are words filed in the database; no cut-off is given here.

A word on the T/C: it is the result in the treated group divided by that in the control group, in per cent. `COc1cc2c(c3oc4c(O)cccc4c(=O)c13)C[C@H]([C@@]1(C)CO1)O2` [PSOROSPERMIN] returned a T/C in the assay with P388 of 158%. Besides, the EC50 with KB worked out at 0.1 µg/mL (≈ 0.294 µM). Besides, the outcome in the assay on Echinoidea was Active.
